Source: patent US11767282B2, “Composition biologically active to stenoma catenifer and sustained release preparation comprising the same for controlling insect pest” (Shin-Etsu Chemical Co., Ltd., priority 2021, dated 2023)
“Also recorded” adds a separate entry of the source.

Experiments:
Stenoma catenifer [1] = conditions: Stenoma catenifer males; Millar et al. 2008, Hoddle et al. 2009; cited from earlier work
Stenoma catenifer [2] = experiment: field trap evaluation of sustained release preparations (white adhesive trap); type: in vivo; conditions: field traps, versus (9Z)-9,13-tetradecadien-11-ynal (1) alone
From the text: A white adhesive trap was used for evaluation of the sustained release preparation. […] An adhesive substance is placed to the upper surface of the bottom plate, and the sustained release preparation A is directly mounted on the adhesive surface for use. In other words, the white adhesive trap has the structure in which only insect pests that come close to the sustained release preparation are captured, and the capture of untargeted insect pests are avoided as much as possible.
In the period of from September 23 and Nov. 25, 2019, the traps containing the respective sustained release preparations were installed in the orchards in which Stenoma catenifer lived. Adult male insect pests captured and killed in each trap were counted every 7 days. The control effect was evaluated by determining the relative value of the number of the insect pests captured by the sustained release preparation of Example 1 when regarding the total number of insect pests captured by the sustained release preparation of later-described Example 2 as 100.

[3] = system: tomato fruit borer (Neoleucinodes elegantalis); conditions: added to sex pheromone main component (11E)-11-hexadecenol; Cabrera, J. Chem. Ecol. 2001; cited from earlier work

Row | SMILES | effect on attraction number in field attraction tests (Stenoma catenifer [1]) | also measured
1 | CCCCC/C=C\C/C=C\CCCCCCCCCCCCC [(6Z,9Z)-6,9-tricosadiene] | did not affect the attraction number | 
2 | C=CC#C/C=C/CCCCCCCC=O [(9E)-9,13-tetradecadien-11-ynal] |  | number of male adult insect pests captured compared with the comparative attractant (Stenoma catenifer [2]): increase in the total number of the captured insect pests
3 | C=CC#C/C=C\CCCCCCCCO [(9Z)-9,13-tetradecadien-11-yn-1-ol] | reduced the attraction number; also recorded: attraction inhibitor | 
4 | C=CC#C/C=C\CCCCCCCC=O [(9Z)-9,13-tetradecadien-11-ynal] | highest activity among the many attractant compositions; also recorded: attracted Stenoma catenifer | 
5 | CCCC/C=C\CCCCCCCCCCO [(11Z)-11-hexadecenol] |  | effect of addition on attracted number [3]: greatly reduce the attracted number
